Structures are written as SMILES.

The term IC50 denotes the point on the concentration scale where inhibition reaches its midpoint. Read a high IC50 as lower potency.

In this test the target is SHP2 (Homo sapiens (Human), UniProt Q06124). The experiment in a line: SHP2 allosteric inhibition assay (DiFMUP substrate, bisphos-IRS1 peptide activation). Format: biochemical. The settings on record: 0.33 nM SHP2, 0.5 μM bisphos-IRS1 peptide, 100 uM DiFMUP, room temperature. How it is done: At the basal state, SHP2 is auto-inhibited and access of substrates to the catalytic site is blocked by the […] interactions between the SH2 domains and the PTP domain. When bis-tyrosyl-phosphorylated peptides bind to SH2 domain of SHP2, the PTP domain becomes available for substrate recognition and reaction catalysis and SHP2 is allosterically activated. SHP2 catalytic activity can be measured using a fluorogenic artificial substrate DiFMUP.
SHP2, sequence (Q06124 whole entry, the tested form may be a part): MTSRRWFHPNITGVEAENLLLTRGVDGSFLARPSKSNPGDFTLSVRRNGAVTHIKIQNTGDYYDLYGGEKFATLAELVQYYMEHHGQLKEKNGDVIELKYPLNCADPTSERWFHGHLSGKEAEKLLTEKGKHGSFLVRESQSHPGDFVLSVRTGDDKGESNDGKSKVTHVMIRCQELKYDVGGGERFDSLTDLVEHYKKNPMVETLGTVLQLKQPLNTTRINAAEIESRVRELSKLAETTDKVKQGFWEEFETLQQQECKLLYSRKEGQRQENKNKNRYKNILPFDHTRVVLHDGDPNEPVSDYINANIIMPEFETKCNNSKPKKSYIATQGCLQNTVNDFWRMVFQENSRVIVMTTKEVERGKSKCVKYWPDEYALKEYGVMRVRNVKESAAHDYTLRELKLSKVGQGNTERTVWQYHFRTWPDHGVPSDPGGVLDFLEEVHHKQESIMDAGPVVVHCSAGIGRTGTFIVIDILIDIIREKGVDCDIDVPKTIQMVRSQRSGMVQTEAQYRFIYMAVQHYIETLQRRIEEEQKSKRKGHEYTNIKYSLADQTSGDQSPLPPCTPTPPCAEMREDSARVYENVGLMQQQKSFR
The phosphatase reactions were carried out at room temperature in 384-well black polystyrene plates (Greiner Bio-One, Cat #784076) using assay buffers containing 60 mM HEPES, pH 7.2, 75 mM NaCl, 75 mM KCl, 1 mM EDTA, 0.05% P-20, and 5 mM DTT.
0.33 nM of SHP2 was co-incubated with of 0.5 μM of bisphos-IRS 1 peptide (sequence: H2N-LN(pY)IDLDLV(dPEG8)LST(pY)ASINFQK-amide) and various concentrations of compounds for 30-60 min at room temperature. Then the reaction was initiated by addition of the surrogate substrate DiFMUP (Invitrogen, Cat #D6567, 100 uM final).
The real-time conversion of DiFMUP to DiFMU (6,8-difluoro-7-hydroxyl-4-methyl-coumarin) was measured every 5 min for 30 min using a microplate reader (CLARIOstar, BMG Labtech) with excitation and emission wavelengths of 340 nm and 450 nm, respectively. Initial reaction rates were determined by linear fitting of the data and the inhibitor dose response curves were analyzed using normalized IC50 regression curve fitting with control-based normalization.
In turn, `C[C@@H]1OCC2(CCN(c3ncc(Sc4ccnc5c4OC[C@@H]4C[C@H](COCC6COC6)CN54)nc3CO)CC2)[C@@H]1N` [Compound 34, (3-((3S,4S)-4-amino-3-methyl-2-oxa-8-azaspiro[4.5]decan-8-yl)-6-(((6aS,8S)-8-((oxetan-3-ylmethoxy)methyl)-6a,7,8,9-tetrahydro-6H-pyrido[3,2-b]pyrrolo[1,2-d][1,4]oxazin-4-yl)thio)pyrazin-2-yl)methanol] gave an IC50 of 6.2 nM.

In the case of `COC[C@H]1C[C@H]2COc3c(Sc4cnc(N5CCC6(CC5)CO[C@@H](C)[C@H]6N)cn4)ccnc3N2C1` [Compound 43, (3S,4S)-8-(5-(((6aS,8S)-8-(methoxymethyl)-6a,7,8,9-tetrahydro-6H-pyrido[3,2-b]pyrrolo[1,2-d][1,4]oxazin-4-yl)thio)pyrazin-2-yl)-3-methyl-2-oxa-8-azaspiro[4.5]decan-4-amine], the half-inhibitory concentration (IC50) turned out to be 4.5 nM.

Consider `C[C@@H]1OCC2(CCN(c3ncc(Sc4ccnc5c4OC[C@H]4COCCN54)nc3CO)CC2)[C@@H]1N` [Compound 26, (3-((3S,4S)-4-amino-3-methyl-2-oxa-8-azaspiro[4.5]decan-8-yl)-6-(((R)-6a,7,9,10-tetrahydro-6H-[1,4]oxazino[4,3-d]pyrido[3,2-b][1,4]oxazin-4-yl)thio)pyrazin-2-yl)methanol], for which the “Shp2 IC50(nM)” value was “one of 26 and 27 is 10 and the other is 8”.

`COCOC[C@H]1C[C@@H]2COc3c(Sc4cnc(N5CCC6(CC5)CO[C@@H](C)[C@H]6N)c(CO)n4)ccnc3N2C1` [Compound 51, (3-((3S,4S)-4-amino-3-methyl-2-oxa-8-azaspiro[4.5]decan-8-yl)-6-(((6aR,8S)-8-((methoxymethoxy)methyl)-6a,7,8,9-tetrahydro-6H-pyrido[3,2-b]pyrrolo[1,2-d][1,4]oxazin-4-yl)thio)pyrazin-2-yl)methanol] registered a 50% inhibitory concentration (IC50) of 4.9 nM.

As to `COC[C@@H]1C[C@H]2COc3c(Sc4cnc(N5CCC6(CC5)Cc5ncccc5[C@H]6N)c(CO)n4)ccnc3N2C1` [Compound 37, (3-((S)-5-amino-5,7-dihydrospiro[cyclopenta[b]pyridine-6,4′-piperidin]-1′-yl)-6-(((6aS,8R)-8-(methoxymethyl)-6a,7,8,9-tetrahydro-6H-pyrido[3,2-b]pyrrolo[1,2-d][1,4]oxazin-4-yl)thio)pyrazin-2-yl)methanol], the “Shp2 IC50(nM)” value is “One of 36 and 37 is 2.7 and the other is 4.2”.

For `COCCOC[C@H]1C[C@H]2COc3c(Sc4cnc(N5CCC6(CC5)CO[C@@H](C)[C@H]6N)c(CO)n4)ccnc3N2C1` [Compound 32, (3-((3S,4S)-4-amino-3-methyl-2-oxa-8-azaspiro[4.5]decan-8-yl)-6-(((6aS,8S)-8-((2-methoxyethoxy)methyl)-6a,7,8,9-tetrahydro-6H-pyrido[3,2-b]pyrrolo[1,2-d][1,4]oxazin-4-yl)thio)pyrazin-2-yl)methanol], the IC50 amounted to 4 nM.

Molecule `C[C@@H]1OCC2(CCN(c3ncc(Sc4ccnc5c4OC[C@@H]4C[C@@H](n6cccn6)CN54)nc3CO)CC2)[C@@H]1N` [Compound 25, (6-(((6aS,8R)-8-(1H-pyrazol-1-yl)-6a,7,8,9-tetrahydro-6H-pyrido[3,2-b]-pyrrolo[1,2-d][1,4]oxazin-4-yl)thio)-3-((3 S,4S)-4-amino-3-methyl-2-oxa-8-azaspiro[4.5]decan-8-yl)pyrazin-2-yl)methanol] had an IC50 of 11 nM. This IC50 lies about 2.8-fold higher than the previous one.

In turn, `C[C@@H]1OCC2(CCN(c3ncc(Sc4ccnc5c4OC[C@@H]4C[C@@H](O)CN54)nc3CO)CC2)[C@@H]1N` [Compound 8, (6aS,8R)-4-((5-((3 S,4S)-4-amino-3-methyl-2-oxa-8-azaspiro[4.5]decan-8-yl)-6-(hydroxymethyl)pyrazin-2-yl)thio)-6a,7,8,9-tetrahydro-6H-pyrido[3,2-b]pyrrolo[1,2-d][1,4]oxazin-8-ol] registered a concentration for half-maximal inhibition (IC50) of 8 nM.

The molecule `C[C@@H]1OCC2(CCN(c3ncc(Sc4ccnc5c4OC[C@@H]4C[C@H](O)CN54)nc3CO)CC2)[C@@H]1N` [Compound 7, (6aS,8S)-4-((5-((3S,4S)-4-amino-3-methyl-2-oxa-8-azaspiro[4.5]decan-8-yl)-6-(hydroxymethyl)pyrazin-2-yl)thio)-6a,7,8,9-tetrahydro-6H-pyrido[3,2-b]pyrrolo[1,2-d][1,4]oxazin-8-ol] came in with a concentration for half-maximal inhibition (IC50) of 6 nM.

Molecule `C[C@@H]1OCC2(CCN(c3ncc(Sc4ccnc5c4OCC4CS(=O)(=O)CCN54)nc3CO)CC2)[C@@H]1N` (stereo partly drawn) [Compound 28, 4-((5-((3S,4S)-4-amino-3-methyl-2-oxa-8-azaspiro[4.5]decan-8-yl)-6-(hydroxymethyl)pyrazin-2-yl)thio)-6a,7,9,10-tetrahydro-6H-pyrido[3,2-b][1,4]thiazino[4,3-d][1,4]oxazine 8,8-dioxide] displayed an IC50 of 13 nM.

Consider `C[C@@H]1OCC2(CCN(c3ncc(Sc4ccnc5c4OC[C@@H]4C[C@@](C)(O)CN54)nc3CO)CC2)[C@@H]1N` (single isomer, unassigned) [Compound 19], for which the “Shp2 IC50(nM)” value is “one of 21 and 22 is 13 and the other is 8”.

`C[C@@H]1OCC2(CCN(c3ncc(Sc4ccnc5c4OC[C@@H]4CC6(CC6)CN54)nc3CO)CC2)[C@@H]1N` [Compound 17, (3-((3S,4S)-4-amino-3-methyl-2-oxa-8-azaspiro[4.5]decan-8-yl)-6-(((S)-6a′,7′-dihydro-6′H,9′H-spiro[cyclopropane-1,8′-pyrido[3,2-b]pyrrolo[1,2-d][1,4]oxazin]-4′-yl)thio)pyrazin-2-yl)methanol]: half-maximal inhibition (IC50) was put at 2 nM. That is a single-digit nanomolar value.

As for `C[C@@H]1OCC2(CCN(c3ncc(Sc4ccnc5c4OC[C@@H]4C[C@H](n6cccn6)CN54)nc3CO)CC2)[C@@H]1N` [Compound 24, (6-(((6aS,8S)-8-(1H-pyrazol-1-yl)-6a,7,8,9-tetrahydro-6H-pyrido[3,2-b]-pyrrolo[1,2-d][1,4]oxazin-4-yl)thio)-3-((3 S,4S)-4-amino-3-methyl-2-oxa-8-azaspiro[4.5]decan-8-yl)pyrazin-2-yl)methanol], half-maximal inhibition (IC50) was put at 10 nM.

`C[C@@H]1OCC2(CCN(c3ncc(Sc4ccnc5c4OC[C@@H]4C[C@](C)(O)CN54)nc3CO)CC2)[C@@H]1N` (single isomer, unassigned) [Compound 18]: the “Shp2 IC50(nM)” value was “one of 21 and 22 is 13 and the other is 8”.

Take `C[C@@H]1OCC2(CCN(c3ncc(Sc4ccnc5c4OC[C@@H]4C[C@H](C#N)CN54)nc3CO)CC2)[C@@H]1N` [Compound 20, (6aS,8S)-4-((5-((3S,4S)-4-amino-3-methyl-2-oxa-8-azaspiro[4.5]decan-8-yl)-6-(hydroxymethyl)pyrazin-2-yl)thio)-6a,7,8,9-tetrahydro-6H-pyrido[3,2-b]pyrrolo[1,2-d][1,4]oxazine-8-carbonitrile]: inhibition was half-maximal at 11 nM (IC50).

Consider `COCO[C@H]1C[C@H]2COc3c(Sc4cnc(N5CCC6(CC5)CO[C@@H](C)[C@H]6N)c(CO)n4)ccnc3N2C1` [Compound 14, (3-((3S,4S)-4-amino-3-methyl-2-oxa-8-azaspiro[4.5]decan-8-yl)-6-(((6aS,8S)-8-(methoxymethoxy)-6a,7,8,9-tetrahydro-6H-pyrido[3,2-b]pyrrolo[1,2-d][1,4]oxazin-4-yl)thio)pyrazin-2-yl)methanol], for which half-maximal inhibition (IC50) required 5 nM.

For the molecule `C[C@@H]1OCC2(CCN(c3ncc(Sc4ccnc5c4OC[C@@H]4C[C@H](O[C@H]6CCOC6)CN54)nc3CO)CC2)[C@@H]1N` [Compound 11, (3-((3S,4S)-4-amino-3-methyl-2-oxa-8-azaspiro[4.5]decan-8-yl)-6-(((6aS,8S)-8-(((S)-tetrahydrofuran-3-yl)oxy)-6a,7,8,9-tetrahydro-6H-pyrido[3,2-b]pyrrolo[1,2-d][1,4]oxazin-4-yl)thio)pyrazin-2-yl)methanol], 14 nM corresponded to half-maximal inhibition (IC50).

In turn, `COCOC[C@@H]1C[C@@H]2COc3c(Sc4cnc(N5CCC6(CC5)CO[C@@H](C)[C@H]6N)c(CO)n4)ccnc3N2C1` [Compound 52, (3-((3S,4S)-4-amino-3-methyl-2-oxa-8-azaspiro[4.5]decan-8-yl)-6-(((6aR,8R)-8-((methoxymethoxy)methyl)-6a,7,8,9-tetrahydro-6H-pyrido[3,2-b]pyrrolo[1,2-d][1,4]oxazin-4-yl)thio)pyrazin-2-yl)methanol] had a half-maximal inhibitory concentration (IC50) of 3.7 nM.

`COCOCOC[C@H]1C[C@H]2COc3c(Sc4cnc(N5CCC6(CC5)CO[C@@H](C)[C@H]6N)c(CO)n4)ccnc3N2C1` [Compound 40, (3-((3 S,4S)-4-Amino-3-methyl-2-oxa-8-azaspiro[4.5]decan-8-yl)-6-(((6aS,8S)-8-(((methoxymethoxy)methoxy)methyl)-6a,7,8,9-tetrahydro-6H-pyrido[3,2-b]pyrrolo[1,2-d][1,4]oxazin-4-yl)thio)pyrazin-2-yl)methanol] had a half-maximal inhibitory concentration (IC50) of 5.9 nM.

`COC[C@H]1C[C@H]2COc3c(Sc4cnc(N5CCC6(CC5)Cc5ncccc5[C@H]6N)c(CO)n4)ccnc3N2C1` [Compound 36, (3-((S)-5-amino-5,7-dihydrospiro[cyclopenta[b]pyridine-6,4′-piperidin]-1′-yl)-6-(((6aS,8S)-8-(methoxymethyl)-6a,7,8,9-tetrahydro-6H-pyrido[3,2-b]pyrrolo[1,2-d][1,4]oxazin-4-yl)thio)pyrazin-2-yl)methanol]: the “Shp2 IC50(nM)” value is “One of 36 and 37 is 2.7 and the other is 4.2”.

(Values after patent publication US10894797B2, “Fused tricyclic ring derivatives as SRC homology-2 phosphatase inhibitors” (Nikang Therapuetics, Inc., priority 2018, dated 2021).)
